Counter-ions that a name gives are not always drawn.
Key:
Rat paw edema = test: Rat Paw Edema Assay (carrageenan); assay type: in vivo, Male Sprague-Dawley rats; details: po, 1 h before subplantar carrageenan (500 μg per paw); paw volume at 3 h
Experimental: Male Sprague-Dawley rats (150-200 g) were fasted overnight and were given po either vehicle (1% methocel or 5% Tween 80) or a test compound. One hour later, a line was drawn using a permanent marker at the level above the ankle in one hind paw to define the area of the paw to be monitored. The paw volume (VO) was measured using a plethysmometer (Ugo-B asile, Italy) based on the principle of water displacement. The animals were then injected subplantarly with 50 μl of 1% carrageenan solution in saline (FMC Corp, Maine) into the paw using an insulin syringe with a 25-gauge needle (i.e. 500 μg carrageenan per paw). Three hours later, the paw is volume (V3) was measured and the increases in paw volume (V3 -VO) were calculated. The animals were sacrificed by CO2 aphyxiation and the absence or presence of stomach lesions scored. Data were compared with the vehicle-control values and percent inhibition calculated. […] All treatment groups were coded to eliminate observer bias.

cyclooxygenase-2 = molecular target: T1, cyclooxygenase-2 (Homo sapiens, UniProt P35354); test: cell-based; details: human osteosarcoma 143 cells; PGE2 synthesis; 10 μM arachidonic acid; read-out: COX-2 (IC50)
T1 sequence (P35354 18-604): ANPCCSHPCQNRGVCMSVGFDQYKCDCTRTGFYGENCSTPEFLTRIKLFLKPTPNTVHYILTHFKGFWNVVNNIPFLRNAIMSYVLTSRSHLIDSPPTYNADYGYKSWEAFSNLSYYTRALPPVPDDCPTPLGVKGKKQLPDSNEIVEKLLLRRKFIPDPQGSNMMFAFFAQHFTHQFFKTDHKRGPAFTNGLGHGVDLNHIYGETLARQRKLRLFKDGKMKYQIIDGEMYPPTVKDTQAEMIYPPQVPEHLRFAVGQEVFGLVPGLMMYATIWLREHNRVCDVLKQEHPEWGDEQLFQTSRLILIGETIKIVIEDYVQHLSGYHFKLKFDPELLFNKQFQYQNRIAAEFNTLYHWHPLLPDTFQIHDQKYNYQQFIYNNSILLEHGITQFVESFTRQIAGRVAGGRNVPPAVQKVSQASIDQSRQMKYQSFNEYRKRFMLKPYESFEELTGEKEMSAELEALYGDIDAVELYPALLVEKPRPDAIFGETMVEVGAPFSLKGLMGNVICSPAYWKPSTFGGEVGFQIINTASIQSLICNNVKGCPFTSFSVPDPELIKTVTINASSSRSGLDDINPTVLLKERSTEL
Experimental: Compounds were tested as inhibitors of cyclooxygenase activity in whole cell cyclooxygenase assays. Both of these assays measured prostaglandin E2 synthesis in response to arachidonic acid, using a radioimmunoassay. Cells used for these assays were human osteosarcoma 143 cells (which specifically express cyclooxygenase-2) and human U-937 cells (which specifically express cyclooxygenase-1 ). In these assays, 100% activity is defined as the difference between prostaglandin E2 synthesis in the absence and presence of arachidonate.
For cyclooxygenase assays, osteosarcoma cells are cultured in 1 mL of media in 24-well multidishes (Nunclon) until confluent (1-2×10^5 cells/well). U-937 cells are grown in spinner flasks and resuspended to a final density of 1.5×10^6 cells/mL in 24-well multidishes (Nunclon). Following washing and resuspension of osteosarcoma and U-937 cells in 1 mL of Hanks balanced salts solution (HBSS), 2 μL of a DMSO solution of test compound or DMSO vehicle is added, and samples gently mixed. All assays are performed in triplicate. Samples and then incubated for 5 or 15 minutes at 37° C., prior to the addition of arachidonic acid. Arachidonic acid (peroxide-free, Cayman Chemical) is prepared as a 10mM stock solution in ethanol and further diluted 10-fold in HBSS. An aliquot of 10 μL of this diluted solution is added to the cells to give a final arachidonic acid concentration of 10 μM. Control samples are incubated with ethanol vehicle instead of arachidonic acid. Samples are again gently mixed and incubated for a further 10 min. at 37° C. For osteosarcoma cells, reactions are then stopped by the addition of 100 μL of 1 N HCl with mixing and by the rapid removal of the solution from cell monolayers. For U-937 cells, reactions are stopped by the addition of 100 μL of 1N HCl, with mixing. Samples are then neutralized by the addition of 100 μL of 1N NaOH and PGE2 levels measured by radioimmunoassay.
In the assay, inhibition is determined by measuring the amount of prostaglandin E2 (PGE2) synthesized in the presence of arachidonic acid, cyclooxygenase-1 or cyclooxygenase-2 and a putative inhibitor. The IC50 values represent the concentration of putative inhibitor required to return PGE2 synthesis to 50% of that obtained as compared to the uninhibited control.

cyclooxygenase-1 = cyclooxygenase-1 (Homo sapiens, UniProt P23219); test: Inhibition of cyclooxygenase activity, whole cell cyclooxygenase assay (COX-1, U-937 cells, PGE2 by radioimmunoassay); assay type: cell-based; details: human U-937 cells; PGE2 synthesis; 10 μM arachidonic acid
Chain of cyclooxygenase-1 (P23219 24-599): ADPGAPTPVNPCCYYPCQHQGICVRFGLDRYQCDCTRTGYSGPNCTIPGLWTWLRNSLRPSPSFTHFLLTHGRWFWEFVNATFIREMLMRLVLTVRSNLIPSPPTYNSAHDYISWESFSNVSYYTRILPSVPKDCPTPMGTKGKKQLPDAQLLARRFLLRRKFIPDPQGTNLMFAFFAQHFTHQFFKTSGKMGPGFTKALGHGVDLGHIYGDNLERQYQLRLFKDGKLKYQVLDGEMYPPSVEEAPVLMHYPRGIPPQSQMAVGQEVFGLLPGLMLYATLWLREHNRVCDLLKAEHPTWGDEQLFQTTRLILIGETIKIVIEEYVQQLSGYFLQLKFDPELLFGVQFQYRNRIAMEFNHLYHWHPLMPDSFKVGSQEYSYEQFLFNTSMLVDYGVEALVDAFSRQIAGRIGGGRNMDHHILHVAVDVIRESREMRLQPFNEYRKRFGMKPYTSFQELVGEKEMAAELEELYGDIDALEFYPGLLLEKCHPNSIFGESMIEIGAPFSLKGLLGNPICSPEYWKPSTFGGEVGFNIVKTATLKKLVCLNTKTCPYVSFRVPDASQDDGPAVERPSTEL

Row | SMILES | IC50 (cyclooxygenase-2) | IC50 (cyclooxygenase-1) | Rat paw edema (ED30) (Rat paw edema)
1 | Cc1c(C(C)C(=O)[O-])c2cc(Br)ccc2n1Cc1ccc(Br)cc1.[Na+] (racemic) |  |  | 0.26 mg/kg
2 | Cc1c(C(C)C(=O)[O-])c2cc(Br)ccc2n1Cc1ccc(Br)cc1.[Na+] (racemic) [sodium salt] | 1.9 nM | 10000 nM | 
3 | Cc1c([C@H](C)C(=O)O)c2cc(Br)ccc2n1Cc1ccc(Br)cc1 [Example 2, sodium salt] | 13 nM | 1100 nM | 0.28 mg/kg

Second part, led by results:

Row | IC50 (cyclooxygenase-2) | IC50 (cyclooxygenase-1) | SMILES | Rat paw edema (ED30) (Rat paw edema)
4 | 1 nM | 32000 nM | Cc1c([C@@H](C)C(=O)O)c2cc(Br)ccc2n1Cc1ccc(Br)cc1 [Example 3, (R)-(-)-2-(5-Bromo-1-(4-bromobenzyl)-2-methyl-1H-indol-3-yl)propionic acid, sodium salt] | 0.57 mg/kg
5 | 10 nM | 10000 nM | COc1ccc2c(c1)c(C(C)C(=O)O)c(C)n2Cc1ccc(Cl)cc1 (stereo not drawn) [MK-555, α-(1-p-chlorobenzyl-2-methyl-5-methoxy-3-indolyl)propionic acid, reference compound] | 3 mg/kg

— US5510368A, “N-benzyl-3-indoleacetic acids as antiinflammatory drugs” (priority 1995, dated 1996)
